Laboratory results reported in patent US7531540B2, “Phthalazinone-piperidino-derivatives as PDE4 inhibitors” (Nycomed GmbH, priority 2001, dated 2009).

What was measured:
PDE4 = experiment: Inhibition of PDE4 activity ([3H]cAMP hydrolysis, cytosol from human neutrophils); format: biochemical; conditions: 0.5 μM cAMP, Motapizone (1 μM) included to suppress PDE3 activity, 15 min at 37° C.
Protocol: Method for Measuring Inhibition of PDE4 Activity
PDE4 activity was determined as described by Thompson et al. (Adv Cycl Nucl Res 10: 69-92, 1979) with some modifications (Bauer and Schwabe, Naunyn-Schmiedeberg's Arch Pharmacol 311: 193-198, 1980). At a final assay volume of 200 μl (96 well microtiter plates) the assay mixture contained 20 mM Tris (pH 7.4), 5 mM MgCl2, 0.5 μM cAMP, [^3H]cAMP (about 30,000 cpm/assay), the test compound and an aliquot of cytosol from human neutrophils which mainly contains PDE4 activity as described by Schudt et al. (Naunyn-Schmiedeberg's Arch Pharmacol 344: 682-690, 1991); the PDE3-specific inhibitor Motapizone (1 μM) was included to suppress PDE3 activity originating from contaminating platelets. Serial dilutions of the compounds were prepared in DMSO and further diluted 1:100 (v/v) in the assays to obtain the desired final concentrations of the inhibitors at a DMSO concentration of 1% (v/v) which by itself only slightly affected PDE4 activity.
After preincubation for 5 min at 37° C., the reaction was started by the addition of substrate (cAMP) and the assays were incubated for further 15 min at 37° C. 50 μl of 0.2 N HCl was added to stop the reaction and the assays were left on ice for about 10 min. Following incubation with 25 μg 5′-nucleotidase (Crotalus atrox snake venom) for 10 min at 37° C., the assays were loaded on QAE Sephadex A-25 (1 ml bed volume). The columns were eluted with 2 ml of 30 mM ammonium formiate (pH 6.0) and the eluate was counted for radioactivity. Results were corrected for blank values (measured in the presence of denatured protein) which were below 5% of total radioactivity. […] The IC50 -values for the compounds according to the invention for the inhibition of the PDE4 activity were determined from the concentration-inhibition curves by nonlinear-regression.
The inhibitory values determined for the compounds according to the invention follow from the following table A, in which the numbers of the compounds correspond to the numbers of the examples.

melting point	Compound	Inhibition of PDE4 acitivity [measured as -logIC50 (mol/l)] (PDE4)
264 to 267 °C	COc1ccc(C2=NN(C3CCN(Cc4ccc5ccc(=O)oc5c4)CC3)C(=O)[C@@H]3CC=CC[C@H]23)cc1OC.Cl [compound 18, (4aS,8aR)-4-(3,4-Dimethoxyphenyl)-2-[1-(2-oxo-2H-chromen-7-ylmethyl)-piperidin-4-yl]-4a,5,8,8a-tetrahydro-2H-phthalazin-1-one hydrochloride]	10.32
214 to 216 °C	COc1ccc(C2=NN(C3CCN(Cc4ccccn4)CC3)C(=O)[C@@H]3CC=CC[C@H]23)cc1OC.Cl.Cl [compound 24, (4aS,8aR)-4-(3,4-Dimethoxy-phenyl)-2-(1-pyridin-2-ylmethyl-piperidin-4-yl)-4a,5,8,8a-tetrahydro-2H-phthalazin-1-one dihydrochloride]	10.63
